One experiment has as its system Trichoderma viride. The experiment can be described thus: Test for wood rotting-preventing effect (mycelium growth inhibition on malt extract agar). The class given is cell-based. To be noted: 28° C.±2° C., 2 to 10 days, read-out: Rotting preventing effect (mycelium growth-inhibitory rate), TRV. As to the method: (§1) The following fungi were cultured in agar media, respectively, and mycelial disks on the media were stamped out together with the agar using a cork borer of 4 mm in diameter. The resulting mycelial disks on agar were used as an inoculum. Each test compound of 50 ppm was added to a malt extract agar medium and added in parts to Petri dishes. The above prepared inoculum was put on the Petri dishes and cultured at 28° C.±2° C. Two to ten days after inoculation, the diameter of the mycelial disk of each fungus was measured, and the mycelium growth-inhibitory rate was obtained according to the following equation. [formula] The mycelium growth-inhibitory rate (%) is indicated by the following symbols as a fungicidal effect on each fungus, and the results are shown in Table 2. | TRV: Trichoderma viride

A further experiment concerns Rhizopus nigricans. Described as above. It is filed as cell-based. To be noted: Rhizopus stolonifer, 28° C.±2° C., 2 to 10 days, read-out: Rotting preventing effect (mycelium growth-inhibitory rate), RHN. As to the method:
as §1, with “RHN: Rhizopus nigricans” for “TRV: Trichoderma viride”

A further experiment has as its system Tyromyces palustris. The experiment is described as above. It is filed as cell-based. The conditions noted are these: 28° C.±2° C., 2 to 10 days, read-out: Rotting preventing effect (mycelium growth-inhibitory rate), TYP. Here is the method:
as §1, with “TYP: Tyromyces palustris” for “TRV: Trichoderma viride”

A further experiment has as its system Aspergillus niger. Described as above. It is filed as cell-based. To be noted: 28° C.±2° C., 2 to 10 days, read-out: Rotting preventing effect (mycelium growth-inhibitory rate), ASN. As to the method:
as §1, with “ASN: Aspergillus niger” for “TRV: Trichoderma viride”

Another experiment has as its system Rhizoctonia solani. Put plainly: Test for controlling effect on sheath blight of rice. The class given is in vivo. The conditions noted are these: 120 h, 200 ppm spray, 24 hours after inoculation, rice 4-leaf stage, five days after inoculation, read-out: Controlling effect (control of disease), Sheath blight of rice. As to the method: 2-3 Test for controlling effect on sheath blight of rice (Rhizoctonia solani) Rice seedlings at the 4-leaf stage were inoculated with the mycelium of sheath blight of rice (Rhizoctonia solani). After 24 hours, a test medicine solution adjusted to 200 ppm was sprayed onto the seedlings. After air-drying, the seedlings were placed in a humid room for 24 hours where the temperature was kept at 28° C. and humidity was kept at 98%. Thereafter, the seedlings were transferred to a greenhouse, and five days after inoculation, the degree of infected area was examined. The control of disease was calculated by comparison with that in the untreated plot. The control of disease is shown as a controlling effect in the same manner as in Test Example 2-1.

Experiment [1] has as its system Pseudoperonospora cubensis. The experiment can be described thus: Test for controlling effect on downy mildew of cucumber. To be noted: 168 h, 200 ppm spray, one day before inoculation, cucumber 2-leaf stage, read-out: Controlling effect (control of disease), Downy mildew of cucumber. The class given is in vivo. As to the method:
2-2 Test for controlling effect on downy mildew of cucumber (Pseudoperonospora cubensis) A test compound adjusted to 200 ppm was sprayed onto cucumber at the 2-leaf stage cultivated in pots. After one day, the cucumber was inoculated by spraying the zoospore suspension of Pseudoperonospora cubensis. After inoculation, the cucumber was placed in a 25° C.-humid room for 1 day and then in a greenhouse for 6 days. Thus, the cucumber was made to be infected with downy mildew. The control of disease of the test compound is calculated by comparing the degree of infection of each leaf with that in the untreated plot. The control of disease is shown as a controlling effect in the same manner as in Test Example 2-1.

Experiment [2] has as its system Gibberella fujikuroi ("Bakanae" disease of rice). The experiment can be described thus: Test for rice seed-disinfecting effect. It is filed as in vivo. The conditions noted are these: Fusarium fujikuroi, 504 h, seed immersion 25° C. 24 hours, three weeks after treatment, read-out: Controlling effect (control of disease), "Bakanae" disease of rice. As to the method: 2-1 Test for rice seed-disinfecting effect
Unhulled rice infected with Gibberella fujikuroi ("Bakanae" disease of rice) was immersed in a test compound adjusted to 1000 ppm at 25° C. for 24 hours. Water was lightly swished off the seed, which was then sowed and germinated for two days. Three weeks after treatment with the solution containing the compound, the rate of the infected seedlings was examined, and the control of disease was calculated by comparison with that of the untreated plot. The control of disease was shown as a controlling effect on the basis of the following standard.

Consider `CCSc1snc(SCOCC#CI)c1C#N` [Compound 129], for which the inhibition at 50 ppm in the experiment on Trichoderma viride was 95 to 100%; in the experiment with Rhizopus nigricans, 80 to 94%; with Tyromyces palustris it was 95 to 100%; in the experiment on Aspergillus niger, 80 to 94%.
`CCSc1snc(OCOCC#CI)c1C#N` [Compound 86, 3-(3-iodo-2-propynyloxymethyloxy)-4-cyano-5-ethylthioisothiazole]: the inhibition at 50 ppm with Trichoderma viride, in the experiment with Rhizopus nigricans, with Tyromyces palustris and in the experiment on Aspergillus niger was 95 to 100% throughout. Also, the pest or weed control at 200 ppm lay within 80 to 94% with Rhizoctonia solani and 95 to 100% in experiment [1]. Further, the pest or weed control at 1000 ppm in experiment [2] lay within 95 to 100%.
Turning to `COc1nsc(OCCC#CI)c1C#N` [Compound 80, 3-methoxy-4-cyano-5-(4-iodo-3-butynyloxy)isothiazole], the inhibition at 50 ppm in the experiment on Trichoderma viride, with Rhizopus nigricans, in the experiment with Tyromyces palustris and with Aspergillus niger was 95 to 100% throughout. Besides, the figures for the pest or weed control at 200 ppm (in the experiment on Rhizoctonia solani; in experiment [1]) were 80 to 94% and 95 to 100%, respectively. Also, the pest or weed control at 1000 ppm in experiment [2] fell in the range of 95 to 100%.
For the molecule `C=CCSc1snc(OCC#CI)c1C#N` [Compound 8], the pest or weed control at 200 ppm in the experiment on Rhizoctonia solani is 60 to 79%; in experiment [1], 95 to 100%. Also, the pest or weed control at 1000 ppm in experiment [2] was in the range of 95 to 100%.
Regarding `N#Cc1c(OCC#CI)nsc1SC1CCCC1` [Compound 7], the inhibition at 50 ppm in the experiment on Trichoderma viride lay within 60 to 79%; with Rhizopus nigricans it was 60 to 79%; with Tyromyces palustris, 95 to 100%; in the experiment with Aspergillus niger it was 60 to 79%.
In the case of `C=CCSc1snc(SCOCC#CI)c1C#N` [Compound 132], the inhibition at 50 ppm with Trichoderma viride, in the experiment with Rhizopus nigricans, in the experiment with Tyromyces palustris and in the experiment with Aspergillus niger was 95 to 100% in each case.
As to `N#Cc1c(OCC#CI)nsc1S(=O)(=O)C1CCCC1` [Compound 46], the inhibition at 50 ppm is 60 to 79% in the experiment with Trichoderma viride, 60 to 79% in the experiment with Rhizopus nigricans, 95 to 100% in the experiment on Tyromyces palustris and 80 to 94% with Aspergillus niger.
On to `CC(C)Oc1snc(OCOCC#CI)c1C#N` [Compound 98], for which the inhibition at 50 ppm in the experiment with Trichoderma viride, with Rhizopus nigricans, with Tyromyces palustris and with Aspergillus niger was 95 to 100% throughout.
As for `C=CC[S+]([O-])c1snc(OCC#CI)c1C#N` (centres unmarked) [Compound 47], the pest or weed control at 200 ppm fell in the range of 95 to 100% in the experiment on Rhizoctonia solani and 80 to 94% in experiment [1]. Also, the pest or weed control at 1000 ppm in experiment [2] was in the range of 95 to 100%.
On to `CC(C)Sc1snc(OCCC#CI)c1C#N` [Compound 72], for which the inhibition at 50 ppm in the experiment with Trichoderma viride, with Rhizopus nigricans, in the experiment on Tyromyces palustris and with Aspergillus niger was 95 to 100% each time.
In the case of `CCCSc1snc(OCOCC#CI)c1C#N` [Compound 87], the inhibition at 50 ppm with Trichoderma viride, in the experiment with Rhizopus nigricans, in the experiment on Tyromyces palustris and in the experiment with Aspergillus niger was 95 to 100% throughout.
For `COCCSc1snc(OCC#CI)c1C#N` [Compound 15], the pest or weed control at 200 ppm (with Rhizoctonia solani; in experiment [1]) was 80 to 94% each time. Further, in experiment [2], the pest or weed control at 1000 ppm was 95 to 100%.
As to `CSc1snc(OCOCC#CI)c1C#N` [Compound 85], the inhibition at 50 ppm with Trichoderma viride, with Rhizopus nigricans, in the experiment with Tyromyces palustris and in the experiment with Aspergillus niger was 95 to 100% throughout.
For the molecule `CCOc1snc(OCOC(C)C#CI)c1C#N` (centres unmarked) [Compound 114], the results for the pest or weed control at 200 ppm (in the experiment with Rhizoctonia solani; in experiment [1]) were 80 to 94% and 95 to 100%, respectively. The pest or weed control at 1000 ppm in experiment [2] was 95 to 100%.
In the case of `N#Cc1c(OCC#CI)nsc1SCOCC#CI` [Compound 142], the inhibition at 50 ppm in the experiment with Trichoderma viride, in the experiment with Rhizopus nigricans, with Tyromyces palustris and with Aspergillus niger was 95 to 100% in each case.
In the case of `CCCCN(C)c1snc(OCC#CI)c1C#N` [Compound 32], the pest or weed control at 200 ppm in the experiment with Rhizoctonia solani lay in the range of 60 to 79%; in experiment [1] it was 95 to 100%. Moreover, in experiment [2], the pest or weed control at 1000 ppm was 80 to 94%.
For `N#Cc1c(SCOCC#CI)nsc1SCOCC#CI` [Compound 140] the same measures were 80 to 94%, 95 to 100% and 80 to 94%.
On the same counts, the results for `N#CCSc1snc(OCC#CI)c1C#N` [Compound 17] are 95 to 100%, 95 to 100% and 95 to 100%.
On to `COCCOc1nsc(OCCC#CI)c1C#N` [Compound 84], for which the inhibition at 50 ppm in the experiment with Trichoderma viride, with Rhizopus nigricans, with Tyromyces palustris and in the experiment on Aspergillus niger was 95 to 100% in each case.
With `CCSc1snc(OCC#CI)c1C#N` [Compound 2], the inhibition at 50 ppm lay in the range of 80 to 94% in the experiment with Trichoderma viride, 80 to 94% in the experiment with Rhizopus nigricans, 95 to 100% in the experiment with Tyromyces palustris and 60 to 79% with Aspergillus niger.
For the molecule `CC(C)Oc1nsc(OCC#CI)c1C#N` [Compound 51], the inhibition at 50 ppm with Trichoderma viride, in the experiment on Rhizopus nigricans, with Tyromyces palustris and in the experiment with Aspergillus niger was 95 to 100% throughout.
As for `COc1snc(OCOCC#CI)c1C#N` [Compound 95], the inhibition at 50 ppm in the experiment on Trichoderma viride, in the experiment on Rhizopus nigricans, in the experiment with Tyromyces palustris and in the experiment on Aspergillus niger was 95 to 100% each time.
`C#CCSc1snc(OCC#CI)c1C#N` [Compound 10]: the inhibition at 50 ppm with Trichoderma viride was in the range of 80 to 94%; in the experiment on Rhizopus nigricans, 80 to 94%; in the experiment on Tyromyces palustris it was 95 to 100%; with Aspergillus niger, 95 to 100%.
Regarding `CCOc1nsc(SC(C)OCC#CI)c1C#N` (centres unmarked) [Compound 126], the inhibition at 50 ppm with Trichoderma viride, in the experiment with Rhizopus nigricans, with Tyromyces palustris and in the experiment with Aspergillus niger was 95 to 100% each time.
